Measurements: patent US9301923B2, “Lipids, lipid compositions, and methods of using them” (NOVARTIS AG, priority 2009, dated 2016)
Several values for one entry are separate records, joined by “and”; a condition that tells them apart may be missing. Identical values can stand only once. Like-named read-outs stand apart in the source and are kept apart here.

Legend:
Factor VII = Factor VII activity assay, in vivo liver delivery of FVII siRNA LNP; design: species or system mouse; settings: for FVII inhib %: ~48 h
Procedure: Female CD-1 mice are received from Charles River Labs and maintained on standard lab chow and water ad libitum. The animals weigh approximately 25 grams at time of dosing. Formulated siRNA is administered as a single dose at various dose levels intravenously via the lateral tail vein calculated on a (mg siRNAs/kg) basis according to individual animal weights (10 ml/kg injection volume).
Formulated siRNAs are made up of double stranded siRNA sequences specific to a target mRNA sequence, and are in the form of lipid nucleotid particles (LNPs) containing cationic lipids, stealth lipids and neutral lipids, as provided in the Examples below. The siRNA construct for use in targeting the liver is specific to Factor VII. […] FVII siRNA duplex sequence
Formulated Factor VII siRNA is administered as a single dose at various dose levels intravenously via the lateral tail vein calculated on a mg siRNAs/kg basis according to individual animal weights (10 ml/kg injection volume). Approximately 48 h after injection, the mice are euthanized by CO2 inhalation followed by exsanguinations through the vena cava. […] In some cases, small pieces (˜50 mg) of liver are collected and snap frozen in liquid nitrogen for follow up mRNA quantitation.
An assay standard curve is prepared using pooled plasma aliquots from the vehicle control animals.

[1] = pKa of the lipid by TNS fluorescence; assay type: physicochemical
Procedure: Unless explicitly indicated otherwise, all pKas referred to herein are measured in water at standard temperature and pressure. Also, unless otherwise indicated, all references to pKa are references to pKa measured using the following technique.
2 mM solution of lipid in ethanol are prepared by weighing the lipid and then dissolving in ethanol.
This is done with all eight buffers.
Priority: Column priority • Carriage Speed: Normal • Auto read: Off
The normalized fluorescence intensity vs. pH chart is then plotted in the Microsoft Excel software. The eight points are connected with a smooth line.
The pKa determined using this method is precise to about 0.2 pKa units.

[2] = Particle size and PDI by dynamic light scattering (Malvern Zetasizer); assay type: physicochemical
Procedure: Unless indicated otherwise, all sizes referred to herein are the average sizes (diameters) of the fully formed nanoparticle, as measured by dynamic light scattering on a Malvern Zetasizer. The nanoparticle sample is diluted in phosphate buffered saline (PBS) so that the count rate is approximately 200-400 kcts. The data is presented as a weighted average of the intensity measure.
The acronym PDI stands for polydispersity index. Unless indicated otherwise, all PDIs referred to herein are the PDI of the fully formed nanoparticle, as measured by dynamic light scattering on a Malvern Zetasizer. The nanoparticle sample is diluted in phosphate buffered saline (PBS) so that the count rate is approximately 200-400 kcts.

[3] = dose 1 mg/kg siRNA i.v., lipid/no neutral lipid/CHOL/GM-020 NOF 60/0/36/4, N/P 3
[4] = lipid/no neutral lipid/CHOL/GM-020 NOF 60/0/36/4, N/P 3
[5] = dose 3 mg/kg siRNA i.v., lipid/DSPC/CHOL/AVANTI 880150P 50/28/18/4, N/P 3.43
[6] = dose 3 mg/kg siRNA i.v., lipid/no neutral lipid/CHOL/AVANTI 880150P 50/0/46/4, N/P 3.43
[7] = lipid/DSPC/CHOL/AVANTI 880150P 50/28/18/4, N/P 3.43
[8] = lipid/no neutral lipid/CHOL/AVANTI 880150P 50/0/46/4, N/P 3.43
[9] = dose 1 mg/kg siRNA i.v., lipid/no neutral lipid/CHOL/AVANTI 880150P 50/0/46/4, N/P 3.43

SMILES	FVII inhib % (Factor VII; [3]) [%]	pKa ([1]; pKa)	Final size (nm) [2, 4] [nm]	PDI [2, 4]	FVII inhib % (Factor VII; [5]) [%]	FVII inhib % (Factor VII; [6]) [%]	Final size (nm) [2, 7] [nm]	PDI [2, 7]	Final size (nm) [2, 8]	PDI [2, 8]	FVII inhib % (Factor VII; [9]) [%]	pKa [1]	in vivo Factor VII inhibition (Factor VII; formulation containing the cationic lipid, RNAi construct specific to Factor VII, liver) [%]
CCCCC/C=C\C/C=C\CCCCCCCCOCC(CN1CCCCC1)OCCOCCOCCOCCO[C@H]1CC[C@@]2(C)C(=CC[C@H]3[C@@H]4CC[C@H]([C@H](C)CCCC(C)C)[C@@]4(C)CC[C@@H]32)C1 (stereo partly shown) [E0079]	33.5	6.79	106.2	0.052	–	–	–	–	–	–	–	–	–
CCCCC/C=C\C/C=C\CCCCCCCCOCC(CN1CCOCC1)OCCCCO[C@H]1CC[C@@]2(C)C(=CCC3C2CC[C@@]2(C)C3CC[C@@H]2[C@H](C)CCCC(C)C)C1 (stereo partly shown) [E0028]	–	4.8	–	–	12.5	38.7	129	0.216	68 nm	0.125	–	–	–
CCCCC/C=C\C/C=C\CCCCCCCCOCC(CN1CCCCC1)OC(=O)CCC(=O)O[C@H]1CC[C@@]2(C)C(=CCC3C2CC[C@@]2(C)C3CC[C@@H]2[C@H](C)CCCC(C)C)C1 (stereo partly shown) [E0036]	–	5.74	–	–	−47	−23.1	122	0.12	76 nm	0.24	–	–	–
CCCCCCCC/C=C\CCCCCCCCOCC(CN1CCCCC1)OCCCOCCCO[C@H]1CC[C@@]2(C)C(=CC[C@H]3[C@@H]4CC[C@H]([C@H](C)CCCC(C)C)[C@@]4(C)CC[C@@H]32)C1 (stereo partly shown) [E0078]	51.9	5.72	122.6	0.098	–	–	–	–	–	–	–	–	–
CCCCC/C=C\C/C=C\CCCCCCCCOCC(CN1CCCC[C@@H]1C)OCCOCCO[C@H]1CC[C@@]2(C)C(=CCC3C2CC[C@@]2(C)C3CC[C@@H]2[C@H](C)CCCC(C)C)C1 (stereo partly shown) [E0019]	–	6.75	–	–	76.7	85.2	143	0.065	90.5 nm and 180 nm	0.164 and 0.19	33.7	–	–
CCCCC/C=C\C/C=C\CCCCCCCCCCC(CN(C)C)OC(=O)CCC(=O)O[C@H]1CC[C@@]2(C)C(=CCC3C2CC[C@@]2(C)C3CC[C@@H]2[C@H](C)CCCC(C)C)C1 (stereo partly shown) [E0174, reference compound]	–	5.15	–	–	63.2	3.5	117	0.23	90 nm	0.21	–	–	–
CCCCC/C=C\C/C=C\CCCCCCCCOCC(CN(C)C)OCCOCCO[C@H]1CC[C@@]2(C)C(=CC[C@H]3[C@@H]4CC[C@H]([C@H](C)CCCC(C)C)[C@@]4(C)CC[C@@H]32)C1 (stereo partly shown) [E0172, reference compound]	–	6.7	–	–	21	40.8	170	0.181	129 nm	0.184	–	8.5	–
CCCCC/C=C\C/C=C\CCCCCCCCOCC(CN1CCCC(C)C1)OCCOCCO[C@H]1CC[C@@]2(C)C(=CCC3C2CC[C@@]2(C)C3CC[C@@H]2[C@H](C)CCCC(C)C)C1 (stereo partly shown) [E0023]	–	5.85	–	–	59.1	68	95	0.221	99 nm	0.122	–	–	–
CCCCC/C=C\C/C=C\CCCCCCCCOCC(CN1C(C)CCC1C)OCCOCCO[C@H]1CC[C@@]2(C)C(=CCC3C2CC[C@@]2(C)C3CC[C@@H]2[C@H](C)CCCC(C)C)C1 (stereo partly shown) [E0046]	–	5.75	–	–	–	12.7	–	–	194 nm	0.116	–	–	–
CCCCC/C=C\C/C=C\CCCCCCCCOCC(CN1CCc2ccccc2C1)OCCOCCO[C@H]1CC[C@@]2(C)C(=CC[C@H]3[C@@H]4CC[C@H]([C@H](C)CCCC(C)C)[C@@]4(C)CC[C@@H]32)C1 (stereo partly shown) [E0001]	–	4.84	–	–	27.6	20.1	71	0.101	77 nm	0.16	–	–	–
CCCCC/C=C\C/C=C\CCCCCCCCCCOCC(CN1CCCCC1)OCCOCCO[C@H]1CC[C@@]2(C)C(=CC[C@H]3[C@@H]4CC[C@H]([C@H](C)CCCC(C)C)[C@@]4(C)CC[C@@H]32)C1 (stereo partly shown) [E0071]	30.8	6.47	188.2	0.151	–	–	–	–	–	–	–	–	–
CCCCC/C=C\C/C=C\CCCCCCCCOCC(CN1CCCC1C)OCCOCCOCCO[C@H]1CC[C@@]2(C)C(=CC[C@H]3[C@@H]4CC[C@H]([C@H](C)CCCC(C)C)[C@@]4(C)CC[C@@H]32)C1 (stereo partly shown) [E0082]	49.7	6.81	105.1	0.303	–	–	–	–	–	–	–	–	–
CCCCC/C=C\C/C=C\CCCCCCCCOCC(CN1CCC2(CC1)OCCO2)OCCOCCO[C@H]1CC[C@@]2(C)C(=CCC3C2CC[C@@]2(C)C3CC[C@@H]2[C@H](C)CCCC(C)C)C1 (stereo partly shown) [E0016]	–	5.85	–	–	88.8	59.9	97	0.175	178 nm	0.206	–	–	–
CCCCC/C=C\C/C=C\CCCCCCCCOCC(CN1CCCC1C)OCCOCCO[C@H]1CC[C@@]2(C)C(=CC[C@H]3[C@@H]4CC[C@H]([C@H](C)CCCC(C)C)[C@@]4(C)CC[C@@H]32)C1 (stereo partly shown) [E0083]	55.6	6.79	113.4	0.199	–	–	–	–	–	–	–	–	–
CCCCCCCC/C=C\CCCCCCCCOCC(CN1CCCC1C)OCCOCCO[C@H]1CC[C@@]2(C)C(=CC[C@H]3[C@@H]4CC[C@H]([C@H](C)CCCC(C)C)[C@@]4(C)CC[C@@H]32)C1 (stereo partly shown) [E0065]	41.1	6.8	153.01	0.148	–	–	–	–	–	–	–	–	–
CCCCC/C=C\C/C=C\CCCCCCCCOCC(CN(C)C)OCCCCO[C@H]1CC[C@@]2(C)C(=CCC3C2CC[C@@]2(C)C3CC[C@@H]2[C@H](C)CCCC(C)C)C1 (stereo partly drawn) [E0173, 3-Dimethylamino-2-(Cholest-5-en-3-beta-oxybutan-4-oxy) -1-(cis,cis-9,12-octadecadienoxy)propane, reference compound]	–	6.73	–	–	90.9	98.5	98	0.17	76 nm	0.16	87.4	–	98.5
CCCCC/C=C\C/C=C\CCCCCCCCOCC(CN1CC[C@@H]2CCCC[C@@H]2C1)OCCOCCO[C@H]1CC[C@@]2(C)C(=CCC3C2CC[C@@]2(C)C3CC[C@@H]2[C@H](C)CCCC(C)C)C1 (stereo partly shown) [E0021]	–	5.13	–	–	24.5	52.8	85	0.22	72 nm	0.184	–	–	–
CCCCC/C=C\C/C=C\CCCCCCCCOCC(CN1CCC(N(C)C)C1)OCCOCCO[C@H]1CC[C@@]2(C)C(=CC[C@H]3[C@@H]4CC[C@H]([C@H](C)CCCC(C)C)[C@@]4(C)CC[C@@H]32)C1 (stereo partly shown) [E0039]	–	5.88	–	–	−6.7	−5.4	113	0.15	94 nm	0.06	–	–	–
